Data as given in patent publication US9593123B2, “Triazolo[4,5-D]pyrimidine derivatives” (Hoffmann-La Roche Inc., priority 2013, dated 2017).

What was measured:
[1] = target: human CB2 receptor (Homo sapiens (Human), UniProt P34972); test: cAMP assay, CHO cells expressing human CB2 receptors; assay type: cell-based; details: functional cAMP assay, read-out: CB2 hcAMP EC50
Experimental: (§1) CHO cells expressing human CB1 or CB2 receptors are seeded 17-24 hours prior to the experiment 50.000 cells per well in a black 96 well plate with flat clear bottom (Corning Costar #3904) in DMEM (Invitrogen No. 31331), 1×HT supplement, with 10% fetal calf serum and incubated at 5% CO2 and 37° C. in a humidified incubator. The growth medium was exchanged with Krebs Ringer Bicarbonate buffer with 1 mM IBMX and incubated at 30° C. for 30 min. Compounds were added to a final assay volume of 100 μl and incubated for 30 min at 30° C. Using the cAMP-Nano-TRF detection kit the assay (Roche Diagnostics) was stopped by the addition of 50 μl lysis reagent (Tris, NaCl, 1.5% Triton X100, 2.5% NP40, 10% NaN3) and 50 μl detection solutions (20 μM mAb Alexa700-cAMP 1:1, and 48 μM Ruthenium-2-AHA-cAMP) and shaken for 2 h at room temperature. The time-resolved energy transfer is measured by a TRF reader (Evotec Technologies GmbH), equipped with a ND:YAG laser as excitation source. The plate is measured twice with the excitation at 355 nm and at the emission with a delay of 100 ns and a gate of 100 ns, total exposure time 10 s at 730 (bandwidth 30 nm) or 645 nm (bandwidth 75 nm), respectively. The FRET signal is calculated as follows: FRET=T730-Alexa730-P(T645-B645) with P=Ru730-B730/Ru645-B645, where T730 is the test well measured at 730 nM, T645 is the test well measured at 645 nm, B730 and B645 are the buffer controls at 730 nm and 645 nm, respectively. cAMP content is determined from the function of a standard curve spanning from 10 μM to 0.13 nM cAMP.
(§2) EC50 values were determined using Activity Base analysis (ID Business Solution, Limited). The EC50 values for a wide range of cannabinoid agonists generated from this assay were in agreement with the values published in the scientific literature.

[2] = target: human CB1 receptor (Homo sapiens (Human), UniProt P21554); test: cAMP assay, CHO cells expressing human CB1 receptors; assay type: cell-based; details: functional cAMP assay, read-out: CB1 hcAMP EC50
Experimental: as §1, §2

Chain of human CB1 receptor (P21554 whole entry): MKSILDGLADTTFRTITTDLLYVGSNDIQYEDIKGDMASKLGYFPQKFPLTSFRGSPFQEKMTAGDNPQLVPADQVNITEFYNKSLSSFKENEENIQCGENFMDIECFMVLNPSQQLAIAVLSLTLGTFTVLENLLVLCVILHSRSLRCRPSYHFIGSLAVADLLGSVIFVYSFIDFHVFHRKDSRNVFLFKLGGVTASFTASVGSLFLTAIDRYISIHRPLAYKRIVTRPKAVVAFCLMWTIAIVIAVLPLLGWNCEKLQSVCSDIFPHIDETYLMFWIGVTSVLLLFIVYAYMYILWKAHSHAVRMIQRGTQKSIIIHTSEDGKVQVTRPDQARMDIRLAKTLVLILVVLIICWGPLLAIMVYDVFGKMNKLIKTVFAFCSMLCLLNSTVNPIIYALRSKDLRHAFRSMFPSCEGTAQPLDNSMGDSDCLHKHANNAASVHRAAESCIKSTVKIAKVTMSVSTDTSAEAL
Chain of human CB2 receptor (P34972 whole entry): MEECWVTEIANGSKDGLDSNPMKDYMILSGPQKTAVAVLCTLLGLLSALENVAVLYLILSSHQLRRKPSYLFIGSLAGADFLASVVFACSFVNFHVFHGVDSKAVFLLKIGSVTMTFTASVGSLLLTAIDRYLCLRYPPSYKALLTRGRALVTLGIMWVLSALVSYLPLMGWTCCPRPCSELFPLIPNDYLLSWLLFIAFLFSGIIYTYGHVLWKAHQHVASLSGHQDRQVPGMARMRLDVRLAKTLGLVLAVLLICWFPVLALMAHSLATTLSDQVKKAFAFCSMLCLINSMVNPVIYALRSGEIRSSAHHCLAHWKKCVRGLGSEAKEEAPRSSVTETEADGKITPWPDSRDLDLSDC

FC1(F)CCN(c2nc(C3CCC3)nc3c2nnn3Cc2ccccc2Cl)C1 [Example 1, 3-[(2-Chlorophenyl)methyl]-5-cyclobutyl-7-(3,3-difluoropyrrolidin-1-yl)triazolo[4,5-d]pyrimidine] gave an EC50 [1] of 1 nM and an EC50 [2] of over 10000 nM.

In the case of COc1ccc(Cn2nnc3c(N4CCC(F)(F)C4)nc(C4CC4)nc32)cc1 [Example 2, 5-Cyclopropyl-7-(3,3-difluoropyrrolidin-1-yl)-3-[(4-methoxyphenyl)methyl]triazolo [4,5-d]pyrimidine], the EC50 [1] is reported as 6.4 nM and the EC50 [2] is reported as over 10000 nM.

With CC(C)c1nc(N2CCC(F)(F)C2)c2nnn(Cc3ccccc3Cl)c2n1 [Example 3, 3-[(2-Chlorophenyl)methyl]-7-(3,3-difluoropyrrolidin-1-yl)-5-isopropyl-triazolo[4,5-d]pyrimidine] the EC50 [1] was 0.5 nM and the EC50 [2] was 770 nM.

FC1(F)CCN(c2nc(C3CC3)nc3c2nnn3Cc2ccccc2Cl)C1 [Example 4, 3-[(2-Chlorophenyl)methyl]-5-cyclopropyl-7-(3,3-difluoropyrrolidin-1-yl)triazolo[4,5-d]pyrimidine] showed an EC50 [1] of 1 nM and an EC50 [2] of 750 nM.

With Cc1nonc1Cn1nnc2c(N3CCC(F)(F)C3)nc(C3CC3)nc21 [Example 5, 3-[[5-Cyclopropyl-7-(3,3-difluoropyrrolidin-1-yl)triazolo[4,5-d]pyrimidin-3-yl]methyl]-4-methyl-1,2,5-oxadiazole] the EC50 [1] was 1 nM and the EC50 [2] was over 10000 nM.

Work on C=C(C)c1nc(N2CC[C@H](O)C2)c2nnn(Cc3ccccc3Cl)c2n1 [Example 6, (3S)-1-[3-[(2-Chlorophenyl)methyl]-5-prop-1-en-2-yltriazolo[4,5-d]pyrimidin-7-yl]pyrrolidin-3-ol] yielded an EC50 [1] of 3.6 nM and an EC50 [2] of over 10000 nM.

Work on Clc1ccccc1Cn1nnc2c(N3CCCCC3)nc(N3CCCCC3)nc21 [Example 7, 3-[(2-Chlorophenyl)methyl]-5,7-di(piperidin-1-yl)triazolo[4,5-d]pyrimidine] yielded an EC50 [1] of 9.2 nM and an EC50 [2] of over 10000 nM.

Compound CCNc1nc(N2CCC(F)(F)C2)c2nnn(Cc3ccccc3Cl)c2n1 [Example 8, 3-[(2-Chlorophenyl)methyl]-7-(3,3-difluoropyrrolidin-1-yl)-N-ethyltriazolo[4,5-d]pyrimidin-5-amine] has an EC50 [1] of 4.5 nM and an EC50 [2] of over 10000 nM.

FC1(F)CCN(c2nc(N3CCC3)nc3c2nnn3Cc2ccccc2Cl)C1 [Example 9, 5-(Azetidin-1-yl)-3-[(2-chlorophenyl)methyl]-7-(3,3-difluoropyrrolidin-1-yl)triazolo [4,5-d]pyrimidine] was tested, and the EC50 [1] was 1.6 nM and the EC50 [2] was 363 nM.

FC1(F)CCN(c2nc(N3CCCC3)nc3c2nnn3Cc2ccccc2Cl)C1 [Example 10, 3-[(2-Chlorophenyl)methyl]-7-(3,3-difluoropyrrolidin-1-yl)-5-pyrrolidin-1-yltriazolo[4,5-d]pyrimidine] was tested, and the EC50 [1] was 2.9 nM and the EC50 [2] was 217 nM.

Work on FC1(F)CCN(c2nc(NC3CCC3)nc3c2nnn3Cc2ccccc2Cl)C1 [Example 11, 3-[(2-Chlorophenyl)methyl]-N-cyclobutyl-7-(3,3-difluoropyrrolidin-1-yl)triazolo[4,5-d]pyrimidin-5-amine] yielded an EC50 [1] of 2.6 nM and an EC50 [2] of over 10000 nM.

CC(C)(C)Nc1nc(N2CCC(F)(F)C2)c2nnn(Cc3ccccc3Cl)c2n1 [Example 12, N-tert-Butyl-3-[(2-chlorophenyl)methyl]-7-(3,3-difluoropyrrolidin-1-yl)triazolo[4,5-d]pyrimidin-5-amine] showed an EC50 [1] of 0.9 nM and an EC50 [2] of 365 nM.

CC1(Nc2nc(N3CCC(F)(F)C3)c3nnn(Cc4ccccc4Cl)c3n2)COC1 [Example 13, 3-[(2-Chlorophenyl)methyl]-7-(3,3-difluoropyrrolidin-1-yl)-N-(3-methyloxetan-3-yl)triazolo[4,5-d]pyrimidin-5-amine] showed an EC50 [1] of 12.5 nM and an EC50 [2] of over 10000 nM.

Compound FC1(F)CCN(c2nc(N3CCOCC3)nc3c2nnn3Cc2ccccc2Cl)C1 [Example 14, 4-[3-[(2-Chlorophenyl)methyl]-7-(3,3-difluoropyrrolidin-1-yl)triazolo[4,5-d]pyrimidin-5-yl]morpholine] has an EC50 [1] of 3.5 nM and an EC50 [2] of over 10000 nM.

CN(c1nc(N2CCC(F)(F)C2)c2nnn(Cc3ccccc3Cl)c2n1)C(C)(C)C [Example 15, N-tert-Butyl-3-[(2-chlorophenyl)methyl]-7-(3,3-difluoropyrrolidin-1-yl)-N-methyltriazolo[4,5-d]pyrimidin-5-amine] showed an EC50 [1] of 2.2 nM and an EC50 [2] of 336 nM.

Work on CC(C)(C)CNc1nc(N2CCC(F)(F)C2)c2nnn(Cc3ccccc3Cl)c2n1 [Example 16, 3-[(2-Chlorophenyl)methyl]-7-(3,3-difluoropyrrolidin-1-yl)-N-(2,2-dimethylpropyl) triazolo[4,5-d]pyrimidin-5-amine] yielded an EC50 [1] of 3.1 nM and an EC50 [2] of over 10000 nM.

In the case of FC1(F)CCN(c2nc(NC3COC3)nc3c2nnn3Cc2ccccc2Cl)C1 [Example 17, 3-[(2-Chlorophenyl)methyl]-7-(3,3-difluoropyrrolidin-1-yl)-N-(oxetan-3-yl)triazolo [4,5-d]pyrimidin-5-amine], the EC50 [1] is reported as 26.6 nM and the EC50 [2] is reported as over 10000 nM.

For CN(c1nc(N2CCC(F)(F)C2)c2nnn(Cc3ccccc3Cl)c2n1)C1CCC1 [Example 18, 3-[(2-Chlorophenyl)methyl]-N-cyclobutyl-7-(3,3-difluoropyrrolidin-1-yl)-N-methyltriazolo[4,5-d]pyrimidin-5-amine], the EC50 [1] was 8.1 nM and the EC50 [2] was 967 nM.

Compound COc1ccc(Cn2nnc3c(N4CC[C@H](O)C4)nc(NC(C)(C)C)nc32)cc1 [Example 19, (3S)-1-[5-(tert-Butylamino)-3-[(4-methoxyphenyl)methyl]triazolo[4,5-d]pyrimidin-7-yl]pyrrolidin-3-ol] has an EC50 [1] of 27.4 nM and an EC50 [2] of over 10000 nM.

For COc1ccc(Cn2nnc3c(N4CCC(F)(F)C4)nc(NC(C)(C)C)nc32)cc1 [Example 20, N-tert-Butyl-7-(3,3-difluoropyrrolidin-1-yl)-3-[(4-methoxyphenyl)methyl]triazolo [4,5-d]pyrimidin-5-amine], the EC50 [1] was 20.3 nM and the EC50 [2] was over 10000 nM.

For COc1ccc(Cn2nnc3c(N4CC[C@H](NC(C)=O)C4)nc(NC(C)(C)C)nc32)cc1 [Example 21, N-[(3S)-1-[5-(tert-Butylamino)-3-[(4-methoxyphenyl)methyl]triazolo[4,5-d]pyrimidin-7-yl]pyrrolidin-3-yl]acetamide], the EC50 [1] was 141 nM and the EC50 [2] was over 10000 nM.

For CC(C)(C)Nc1nc(N2CCC(F)(F)C2)c2nnn(Cc3ccccc3C(F)(F)F)c2n1 [Example 22, N-tert-Butyl-7-(3,3-difluoropyrrolidin-1-yl)-3-[[2-(trifluoromethyl)phenyl]methyl]triazolo[4,5-d]pyrimidin-5-amine], the EC50 [1] was 2.1 nM and the EC50 [2] was over 10000 nM.

In the case of CC(C)(C)Nc1nc(N2CCC(F)(F)C2)c2nnn(Cc3ccccc3S(C)(=O)=O)c2n1 [Example 23, N-tert-Butyl-7-(3,3-difluoropyrrolidin-1-yl)-3-[(2-methylsulfonylphenyl)methyl]triazolo[4,5-d]pyrimidin-5-amine], the EC50 [1] is reported as 1.1 nM and the EC50 [2] is reported as 487 nM.

With CC(C)(C)Nc1nc(N2CCC(F)(F)C2)c2nnn(Cc3ncccc3Cl)c2n1 [Example 24, N-tert-Butyl-3-[(3-chloropyridin-2-yl)methyl]-7-(3,3-difluoropyrrolidin-1-yl)triazolo [4,5-d]pyrimidin-5-amine] the EC50 [1] was 3.4 nM and the EC50 [2] was over 10000 nM.

With Cn1nnnc1Cn1nnc2c(N3CCC(F)(F)C3)nc(NC(C)(C)C)nc21 [Example 25, N-tert-Butyl-7-(3,3-difluoropyrrolidin-1-yl)-3-[(1-methyltetrazol-5-yl)methyl]triazolo [4,5-d]pyrimidin-5-amine] the EC50 [1] was 7.5 nM and the EC50 [2] was over 10000 nM.

With Cc1nonc1Cn1nnc2c(N3CCC(F)(F)C3)nc(NC(C)(C)C)nc21 [Example 26, N-tert-Butyl-7-(3,3-difluoropyrrolidin-1-yl)-3-[(4-methyl-1,2,5-oxadiazol-3-yl)methyl]triazolo[4,5-d]pyrimidin-5-amine] the EC50 [1] was 1 nM and the EC50 [2] was over 10000 nM.

Work on CC(=O)N[C@H]1CCN(c2nc(NC(C)(C)C)nc3c2nnn3Cc2ncccc2Cl)C1 [Example 27, N-[(3S)-1-[5-(tert-Butylamino)-3-[(3-chloropyridin-2-yl)methyl]triazolo[4,5-d]pyrimidin-7-yl]pyrrolidin-3-yl]acetamide] yielded an EC50 [1] of 267 nM and an EC50 [2] of over 10000 nM.

CC(C)(C)Nc1nc(N2CC[C@H](O)C2)c2nnn(Cc3ccccc3Cl)c2n1 [Example 28, (3S)-1-[5-(tert-Butylamino)-3-[(2-chlorophenyl)methyl]triazolo[4,5-d]pyrimidin-7-yl]pyrrolidin-3-ol] showed an EC50 [1] of 2.3 nM and an EC50 [2] of over 10000 nM.
